Experimental findings from patent US20210015850A1, “COMPOSITION FOR IMPROVING INTESTINAL BARRIER FUNCTION” (SUNTORY HOLDINGS LIMITED, priority 2017, published 2021) are described below.

The first test has as its system Caco-2 cells. The test can be described thus: Intestinal barrier function improvement: suppression of cytokine-induced TEER reduction in Caco-2 monolayer. The format is cell-based, human. Particulars: 10 μM; gallate vs non-gallate in the same evaluation. As to the method: Caco-2 cells were cultured for three weeks at 37° C. in Transwell (manufactured by Millicell Corporation) using DMEM (Dulbecco's modified Eagle's medium). A medium was removed from a plate of cultured Caco-2 cells, and the well was washed 3 times with serum-free DMEM. The well was filled with the medium. Then, the transepithelial electrical resistance (TEER) of Caco-2 monolayer cells was measured by Millicell-ERS (manufactured by Millipore Corporation). Cells (TEER≥1000 Ω·cm^2) determined that a sufficient tight junction was formed were selected, and used for the next screening. Then, to test solutions (media) on both apical and basolateral membrane sides, a sample, TNFα (40 ng/mL), IL-1β (20 ng/mL), and IFNγ (10 ng/mL) were added, followed by cultivating for 48 hours. The sample was dissolved in dimethyl sulfoxide (DMSO), and the solution was then added to the test solutions. In this case, a well to which inflammatory cytokine (TNFα, IL-1β, and IFNγ) and the sample were not added was provided as normal. A well to which inflammatory cytokine was added and the sample was not added was provided as control. After the cultivation, TEER was measured again, to evaluate whether the sample suppressed the reduction (decrease) of TEER due to the inflammatory cytokine.
The TEER reduction suppression ratio (%) due to the sample was determined according to the following formula from the TEER values of the well to which the sample was added, normal, and control.
TEER reduction suppression ratio (%)−100×((TEER of well to which sample is added)−(TEER of control))/((TEER of normal)−(TEER of control))
In this evaluation system, as the TEER reduction suppression ratio (%) is higher, an intestinal barrier function improvement effect is higher.
The intestinal barrier function improvement action was evaluated by the same method (the method for evaluating intestinal barrier function improvement action described in Example 4) as that in Example 4. In Example 5, the sample was added into the test solution so that a sample concentration was set to 10 μmol/L. The TEER reduction suppression ratio (%) of the sample was obtained according to the formula from the TEER values of a well to which the sample was added, normal, and control in the same manner as in Example 4.
For `O=C(O[C@@H]1Cc2c(O)cc(O)cc2O[C@@H]1c1ccc(O)c(O)c1)c1cc(O)c(O)c(O)c1` [Epicatechin gallate], the “Relative value of TEER reduction suppression ratio of gallate type compound (non-gallate type compound taken as 1)” value stood at 2.5. For the compound `O=C(O[C@@H]1Cc2c(O)cc(O)cc2O[C@H]1c1cc(O)c(O)c(O)c1)c1cc(O)c(O)c(O)c1` [Gallocatechin gallate], the “Relative value of TEER reduction suppression ratio of gallate type compound (non-gallate type compound taken as 1)” value is given as 3.2.

Staying with this test, now noted: Homo sapiens, Caco-2, 48 h; sample 10 μM (10 μmol/L); Example 5, Table 4; read-out: TEER reduction suppression ratio (%).
Turning to `O=C(OC[C@H]1O[C@@H](OC(=O)c2cc(O)c(O)c(O)c2)[C@H](OC(=O)c2cc(O)c(O)c(O)c2)[C@@H](OC(=O)c2cc(O)c(O)c(O)c2)[C@@H]1O)c1cc(O)c(O)c(O)c1` [1,2,3,6-tetra-O-galloyl-β-D-glucose], the inhibition at 10 µM is 98%. Take `O=C1O[C@H]2[C@@H]3OC(=O)c4cc(O)c(O)c(O)c4-c4c(cc(O)c(O)c4O)C(=O)OC[C@H]2O[C@@H](OC(=O)c2cc(O)c(O)c(O)c2)[C@@H]3OC(=O)c2cc(O)c(O)c3c2[C@@H]2C1=CC(=O)[C@](O)(O3)C2(O)O` [Geranlin, geraniin]: the inhibition at 10 µM was determined as 83%.

`O=C(OC[C@H]1O[C@@H](OC(=O)c2cc(O)c(O)c(O)c2)[C@H](O)[C@@H](O)[C@@H]1OC(=O)c1cc(O)c(O)c(O)c1)c1cc(O)c(O)c(O)c1` [1,4,6-tri-O-galloyl-β-D-glucose]: the inhibition at 10 µM is 56%. As for `O=C(OC[C@H]1O[C@@H](OC(=O)c2cc(O)c(O)c(O)c2)[C@H](OC(=O)c2cc(O)c(O)c(O)c2)[C@@H](O)[C@@H]1OC(=O)c1cc(O)c(O)c(O)c1)c1cc(O)c(O)c(O)c1` [1,2,4,6-tetra-O-galloyl-β-D-glucose], the inhibition at 10 µM is 80%. On to `O=C1OC[C@H]2OC(O)[C@@H]3OC(=O)c4cc(O)c(O)c(O)c4-c4c(cc(O)c(O)c4O)C(=O)O[C@H]3[C@@H]2OC(=O)c2cc(O)c(O)c(O)c2-c2c1cc(O)c(O)c2O` (some centres unmarked) [Pedunculagin], for which the inhibition at 10 µM came to 72%.

Regarding `O=C(OC[C@H]1O[C@@H](OC(=O)c2cc(O)c(O)c(O)c2)[C@H](OC(=O)c2cc(O)c(O)c(O)c2)[C@@H](OC(=O)c2cc(O)c(O)c(O)c2)[C@@H]1OC(=O)c1cc(O)c(O)c(O)c1)c1cc(O)c(O)c(O)c1` [1,2,3,4,6-penta-O-galloyl-β-D-glucose], the inhibition at 10 µM is 64%.

Take `O=C(O[C@@H]1COC(=O)c2cc(O)c(O)c(O)c2-c2c(cc(O)c(O)c2O)C(=O)O[C@H]1[C@@H]1OC(=O)c2cc(O)c(O)c(O)c2-c2c(O)c(O)c(O)c3c2C(=O)O[C@H]1[C@@H]3O)c1cc(O)c(O)c(O)c1` [Casuarinin]: the inhibition at 10 µM stood at 82%.

For `O=C(O)c1cc(O)c(O)c(O)c1Oc1cc2c(c(O)c1O)-c1c(cc(O)c(O)c1O)C(=O)O[C@@H]1C(COC2=O)OC(O)C2OC(=O)c3cc(O)c(O)c(O)c3-c3c(cc(O)c(O)c3O)C(=O)O[C@H]21` (some centres unmarked) [Praecoxin A], the inhibition at 10 µM is 74%. For the compound `O=c1c(O)c(-c2ccc(O)c(O)c2)oc2cc(O)cc(O)c12` [quercetin, reference compound], the inhibition at 10 µM was 38%. `O=C(OC[C@H]1O[C@@H](O)[C@H](OC(=O)c2cc(O)c(O)c(O)c2)[C@@H](OC(=O)c2cc(O)c(O)c(O)c2)[C@@H]1OC(=O)c1cc(O)c(O)c(O)c1)c1cc(O)c(O)c(O)c1` [2,3,4,6-tetra-O-galloyl-β-D-glucose]: the inhibition at 10 µM worked out at 93%.

Still in this test, the particulars now being: Homo sapiens, Caco-2; sample 10 μM; TNFα 40 ng/mL, IL-1β 20 ng/mL, IFNγ 10 ng/mL; 48 hours; Table 2; read-out: TEER reduction suppression ratio (%).
With `O=C(O[C@@H]1Cc2c(O)cc(O)cc2O[C@@H]1c1ccc(O)c(O)c1)c1cc(O)c(O)c(O)c1` [Epicatechin gallate], the inhibition at 10 µM is 35%. Turning to `Oc1cc(O)c2c(c1)O[C@H](c1ccc(O)c(O)c1)[C@H](O)C2` [Epicatechin, reference compound], the inhibition at 10 µM was found to be 14%. As for `Oc1cc(O)c2c(c1)O[C@H](c1cc(O)c(O)c(O)c1)[C@@H](O)C2` [Gallocatechin, reference compound], the inhibition at 10 µM is 19%. On the same count and under the same terms, with `O=C(O[C@@H]1Cc2c(O)cc(O)cc2O[C@H]1c1cc(O)c(O)c(O)c1)c1cc(O)c(O)c(O)c1` [Gallocatechin gallate] the figure was 60%.

The same test, now with this note: sample 10 μM (10 μmol/L); Example 5, Table 4.
For stenophyllanin B, the “TEER reduction suppression ratio (%)” value amounted to 126%.

With `O=C(O[C@H]1COC(=O)c2cc(O)c(O)c(O)c2-c2c(cc(O)c(O)c2O)C(=O)O[C@H]1C1OC(=O)c2cc(O)c(O)c(O)c2-c2c(O)c(O)c(O)c3c2C(=O)O[C@H]1[C@@H]3c1c(O)cc(O)c2c1OC(c1ccc(O)c(O)c1)C(O)C2)c1cc(O)c(O)c(O)c1` (some centres unmarked) [Stenophyllanin A, stenophyllanin A], the “TEER reduction suppression ratio (%)” value was 96%. With `O=C(O[C@H]1[C@@H]2OC(=O)c3cc(O)c(O)c(O)c3-c3c(cc(O)c(O)c3O)C(=O)OC[C@H]2OC(O)[C@@H]1OC(=O)c1cc(O)c(O)c(O)c1)c1cc(O)c(O)c(O)c1` (some centres unmarked) [Tellimagrandin I, tellimagrandin I], the “TEER reduction suppression ratio (%)” value is listed as 65%.

Staying with this test, now noted: sample 10 μM; TNFα 40 ng/mL, IL-1β 20 ng/mL, IFNγ 10 ng/mL; 48 hours; Table 2.
Catechin [reference compound]: the “TEER reduction suppression ratio (%)” value is 15%.
